Consider 26 compounds from patent US20230104283A1, “JNK INHIBITOR, AND PHARMACEUTICAL COMPOSITION AND USE THEREOF” (WUHAN LL SCIENCE AND TECHNOLOGY DEVELOPMENT CO. , LTD, priority 2019, published 2023).

The structures appear in SMILES notation. Some results are limits rather than exact numbers.

The test system of assay [1] is RAW264.7 phosphorylated c-Jun (Ser63). In words: RAW264.7 phosphorylated c-Jun whole cell assay. The format is cell-based. To be noted: Mus musculus; cytological assay, activity level; lipopolysaccharide-activated RAW264.7 cells, phospho-c-Jun (Ser63) ELISA. The procedure:
RAW264.7 (ATCC TIB-71) cells were purchased from BeNa Culture Collection and maintained in a high-glucose DMEM medium (Gibco) containing 10% fetal bovine serum (Gibco) and 1% penicillin-streptomycin (Gibco). All cells were cultured at 37° C. in 95% air and 5% CO2. All cells were seeded into 120 μL of cell culture medium in a 96-well plate at a density of 2×10^5 cells per well. The stock solution of compound (15 mM) was serially diluted in DMSO (Sigma) and further diluted in growth medium, and it was then added at 15 μL per well as a 10× concentrated solution, well mixed with the cells and incubated with the cells for 30 min. Concentration of the compound vehicle (DMSO) in each well was 0.2%. After incubation for 30 min, the cells were activated with […] lipopolysaccharide (Sigma). Lipopolysaccharide was added to the growth medium as a 10× concentrated solution at 15 μL per well. The cell plate was incubated for 1 h, and then all the medium was removed. The level of C-Jun protein with phosphorylation of serine at site 63 was measured using the whole cell lysate kit-phosphorylated C-Jun assay (PathScan® Phospho-c-Jun (Ser63) Sandwich ELISA Kit) (CST, 7145C) according to the manufacturer's instructions.

Assay [2] deals with T1, JNK1 kinase (Homo sapiens, UniProt P45983).
T1 construct: purchased Carna Biosciences 04-163
In words: JNK1 activity screening (time-resolved fluorometric HTRF kinase assay). The format is biochemical. The following applies: enzymatic assay, activity level. Here is the method:
JNK1 activity screening. JNK1 activity was detected using a 96-well (Cisbio, 66PL96025) time-resolved fluorometric assay. The JNK1 assay was conducted in the following assay buffer: 10 mM MgCl2 (Sigma, M1028), 1 mM MnCl2 (Sigma, M1787), 1 mM DTT (Sigma, D0632) and 1× Enzymatic buffer/kinase (Cisbio, 62EZBFDC). By using the assay buffer, 3 μL of 0.1 ng/μL JNK1 kinase (Carna Biosciences, 04-163) was added to a 96-well microplate, and then 4 μL of a compound diluted appropriately (with a DMSO content of 2.5%) was added. The resulting mixture was incubated at room temperature for 0.5 h. To start the reaction, the assay buffer was used to mix 0.003 μM ATP (Aladdin, A7699) and 30 μM substrate ATF2-GST fusion (Cisbio, 64CUS000AFPEB), and 3 μL of the mixed solution was added to the microplate. The resulting mixture was incubated at room temperature for 2.5 h. HTRF detection buffer ([…], 62SDBRDD) was used then to prepare a mixture of 5 μg/mL MAb Anti GST-XL665 (Cisbio, 61GSTXLA) and 0.045 μg/mL PAb Anti-phospho ATF2-K (Cisbio, 61P12KAZ), and 10 μL of the mixture was added to the plate to terminate the reaction. After incubation for about 12 h, the plate was read on a Perkin-Elmer Envision reader.

T1 sequence (P45983 whole entry): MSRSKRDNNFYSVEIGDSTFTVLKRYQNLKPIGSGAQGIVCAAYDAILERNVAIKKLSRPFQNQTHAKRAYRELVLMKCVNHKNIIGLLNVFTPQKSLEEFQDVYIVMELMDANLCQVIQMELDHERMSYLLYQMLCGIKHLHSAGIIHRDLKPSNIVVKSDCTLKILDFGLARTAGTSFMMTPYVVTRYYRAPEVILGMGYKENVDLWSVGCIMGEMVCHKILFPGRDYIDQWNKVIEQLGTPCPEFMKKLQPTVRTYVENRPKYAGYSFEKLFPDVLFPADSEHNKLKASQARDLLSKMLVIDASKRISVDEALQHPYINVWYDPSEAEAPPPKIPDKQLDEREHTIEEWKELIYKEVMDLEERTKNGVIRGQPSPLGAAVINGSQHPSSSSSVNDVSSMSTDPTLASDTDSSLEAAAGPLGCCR

`CS(=O)(=O)CCn1ccc(Nc2ccnc(N[C@H]3CC[C@H](O)CC3)n2)n1` [Compound T037, (1R,4R)-4-((4-((1-(2-(methylsulfonyl)ethyl)-1H-pyrazol-3-yl)amino)pyrimidin-2-yl)amino)cyclohexan-1-ol]: the IC50 in assay [1] and in assay [2] was > 1000 nM in each case.
In the case of `CCNC(=O)N1CCC(Nc2ncc(C(N)=O)c(N[C@@H]3CC[C@@H](C)[C@H](O)C3)n2)CC1` [Compound T024, 2-((l-(ethylcarbamoyl)piperidin-4-yl)amino)-4-(((1R,3R,4R)-3-hydroxy-4-methylcyclohexyl)amino)pyrimidine-5-carboxamide], the concentration for half-maximal inhibition (IC50) in assay [1] was 100 to 500 nM; in assay [2], < 100 nM.
In the case of `CC(C)(C)Nc1ncc(C(N)=O)c(N2CCCC(CO)C2)n1` (stereo not shown) [Compound T018, 2-(tert-butylamino)-4-(3-(hydroxymethyl)piperidin-1-yl)pyrimidine-5-carboxamide], the IC50 in assay [1] lay within 500 to 1000 nM; in assay [2], 100 to 500 nM.
In the case of `COc1ccc(Nc2ncc(C(N)=O)c(N[C@@H]3CC[C@@H](C)[C@H](O)C3)n2)cc1` [Compound T010, 4-(((1R,3R,4R)-3-hydroxy-4-methylcyclohexyl)amino)-2-((4-methoxyphenyl)amino) pyrimidine-5-carboxamide], the IC50 in assay [1] and in assay [2] was < 100 nM throughout.
In the case of `CS(=O)(=O)CCn1nccc1Nc1ccnc(N[C@H]2CC[C@H](O)CC2)n1` [Compound T038, (1R,4R)-4-((4-((1-(2-(methylsulfonyl)ethyl)-1H-pyrazol-5-yl)amino)pyrimidin-2-yl)amino)cyclohexan-1-ol], the half-inhibitory concentration (IC50) in assay [1] and in assay [2] was > 1000 nM throughout.
On to `C[C@@H]1CC[C@@H](Nc2nc(NC(C)(C)C)ncc2F)C[C@H]1O` [Compound T012, (1R,2R,5R)-5-((2-(tert-butylamino)-5-fluoropyrimidin-4-yl)amino)-2-methylcyclohexan-1-ol], for which the half-inhibitory concentration (IC50) in assay [1] and in assay [2] was > 1000 nM each time.
Regarding `C=Cc1cnc(NC(C)(C)C)nc1N[C@@H]1CC[C@@H](C)[C@H](O)C1` [Compound T066, (1R,2R,5R)-5-((2-(tert-butylamino)-5-vinylpyrimidin-4-yl)amino)-2-methylcyclohex-1-ol], the half-maximal inhibitory concentration (IC50) in assay [1] and in assay [2] was > 1000 nM each time.
On to `C[C@@H]1CC[C@@H](Nc2nc(OC(C)(C)C)ncc2C(N)=O)C[C@H]1O` [Compound T043, 2-(tert-butoxy)-4-(((1R,3R,4R)-3-hydroxy-4-methylcyclohexyl)amino) pyrimidine-5-carboxamide], for which the IC50 was > 1000 nM in assay [1] and 500 to 1000 nM in assay [2].
In the case of `C[C@@H]1CC[C@@H](Nc2nc(NC(C)(C)C)ncc2[N+](=O)[O-])C[C@H]1O` [Compound T062, (1R,2R,5R)-5-((2-(tert-butylamino)-5-nitropyrimidin-4-yl)amino)-2-methylcyclohex-1-ol], the IC50 in assay [1] and in assay [2] was > 1000 nM each time.
With `C[C@@H]1CC[C@@H](Nc2cc(NC3CCC(O)C3)ncc2C(N)=O)C[C@H]1O` (stereo partly drawn) [Compound T048, 4-(((1R,3R,4R)-3-hydroxy-4-methylcyclohexyl)amino)-6-((3-hydroxycyclopentyl)amino) nicotinamide], the IC50 in assay [1] is > 1000 nM; in assay [2], 500 to 1000 nM.
The like results for `C[C@@H]1CC[C@@H](Nc2nc(NC(C)(C)C)ncc2C(F)F)C[C@H]1O` [Compound T028, (1R,2R,5R)-5-((2-(tert-butylamino)-5-(difluoromethyl)pyrimidin-4-yl)amino)-2-methylcyclohex-1-ol] were, in that order, > 1000 nM and > 1000 nM.
For `C[C@@H]1CC[C@@H](Nc2nc(NC(C)(C)C)ncc2Cl)C[C@H]1O` [Compound T013, (1R,2R,5R)-5-((2-(tert-butylamino)-5-chloropyrimidin-4-yl)amino)-2-methylcyclohexan-1-ol], the half-maximal inhibitory concentration (IC50) was > 1000 nM in assay [1] and 500 to 1000 nM in assay [2].
Turning to `COc1cnc(NC(C)(C)C)nc1N[C@@H]1CC[C@@H](C)[C@H](O)C1` [Compound T029, (1R,2R,5R)-5-((2-(tert-butylamino)-5-methoxypyrimidin-4-yl)amino)-2-methylcyclohex-1-ol], the concentration for half-maximal inhibition (IC50) in assay [1] and in assay [2] was > 1000 nM throughout.
As to `C[C@@H]1CC[C@@H](Nc2cc(NC3CCC(O)CC3)ncc2C(N)=O)C[C@H]1O` (stereo partly drawn) [Compound T052, 4-(((1R,3R,4R)-3-hydroxy-4-methylcyclohexyl)amino)-6-((4-hydroxycyclohexyl)amino) nicotinamide], the 50% inhibitory concentration (IC50) was > 1000 nM in assay [1] and 500 to 1000 nM in assay [2].
As for `C[C@@H]1CC[C@@H](Nc2nc(NC(C)(C)C)ncc2C(C)(C)O)C[C@H]1O` [Compound T005, (1R,2R,5R)-5-((2-(tert-butylamino)-5-(2-hydroxypropan-2-yl)pyrimidin-4-yl)amino)-2-methylcyclohexan-1-ol], the IC50 in assay [1] and in assay [2] was > 1000 nM throughout.
For `CC(C)(C)Nc1ncc(C(N)=O)c(NC2CCC(=O)N(CCO)C2)n1` (stereo not drawn) [Compound T017, 2-(tert-butylamino)-4-((l-(2-hydroxyethyl)-6-oxopiperidin-3-yl)amino)pyrimidine-5-carboxamide], the values for the half-maximal inhibitory concentration (IC50) in assay [1] and in assay [2] were 500 to 1000 nM and < 100 nM, respectively.
Take `CC(C)Nc1cc(N[C@@H]2CC[C@@H](C)[C@H](O)C2)c(C(N)=O)cn1` [Compound T047, 4-(((1R,3R,4R)-3-hydroxy-4-methylcyclohexyl)amino)-6-(isopropylamino)nicotinamide]: the figures for the IC50 in assay [1] and in assay [2] were > 1000 nM and 500 to 1000 nM, respectively.
As for `C[C@@H]1CC[C@@H](Nc2cc(NC3CCCC3)ncc2C(N)=O)C[C@H]1O` [Compound T056, 6-(cyclopentylamino)-4-(((1R,3R,4R)-3-hydroxy-4-methylcyclohexyl)amino) nicotinamide], the values for the 50% inhibitory concentration (IC50) in assay [1] and in assay [2] were > 1000 nM and 500 to 1000 nM, respectively.
Turning to `C[C@@H]1CC[C@@H](Nc2nc(NC(C)(C)C)ncc2C(N)=S)C[C@H]1O` [Compound T001, 2-(tert-butylamino)-4-(((1R,3R,4R)-3-hydroxy-4-methylcyclohexyl)amino) pyrimidine-5-carbothioamide], the 50% inhibitory concentration (IC50) is 100 to 500 nM in assay [1] and < 100 nM in assay [2].
The like results for `C[C@@H]1CC[C@@H](Nc2nc(NC(C)(C)C)ncc2-n2ccnc2)C[C@H]1O` [Compound T034, (1R,2R,5R)-5-((2-(ter-butylamino)-5-(1H-imidazol-1-yl)pyrimidin-4-yl)amino)-2-methylcyclohex-1-ol] were, in that order, > 1000 nM and > 1000 nM.
Consider `C#Cc1cnc(NC(C)(C)C)nc1N[C@@H]1CC[C@@H](C)[C@H](O)C1` [Compound T064, (1R,2R,5R)-5-((2-(ter-butylamino)-5-ethynylpyrimidin-4-yl)amino)-2-methylcyclohex-1-ol], for which the figures for the IC50 in assay [1] and in assay [2] were > 1000 nM and 500 to 1000 nM, respectively.
Consider `CC(C)(C)Nc1ncc(C(N)=O)c(NC2CCCNC2)n1` (stereo not shown) [Compound T025, 2-(tert-butylamino)-4-(piperidin-3-ylamino)pyrimidine-5-carboxamide], for which the IC50 was > 1000 nM in assay [1] and < 100 nM in assay [2].
On to `CC(C)(C)Nc1ncc(C(N)=O)c(NC2CCCN(C(N)=O)C2)n1` (stereo not shown) [Compound T021, 2-(tert-butylamino)-4-((1-carbamoylpiperidin-3-yl)amino) pyrimidine-5-carboxamide], for which the IC50 in assay [1] was > 1000 nM; in assay [2] it was 100 to 500 nM.
In the case of `C[C@@H]1CC[C@@H](Nc2cc(NCCO)ncc2C(N)=O)C[C@H]1O` [Compound T046, 4-(((1R,3R,4R)-3-hydroxy-4-methylcyclohexyl)amino)-6-((2-hydroxyethyl)amino)nicotinamide], the IC50 in assay [1] was > 1000 nM; in assay [2] it was 500 to 1000 nM.
For `C[C@@H]1CC[C@@H](Nc2nc(NC(C)(C)C)ncc2-n2ccnn2)C[C@H]1O` [Compound T036, (1R,2R,5R)-5-((2-(tert-butylamino)-5-(1H-1,2,3-triazol-1-yl)pyrimidin-4-yl)amino)-2-methylcyclohexan-1-ol], the IC50 was in the range of 500 to 1000 nM in assay [1] and 100 to 500 nM in assay [2].
Taken in the same sequence, the figures for `CCC(=O)c1cnc(NC(C)(C)C)nc1N[C@@H]1CC[C@@H](C)[C@H](O)C1` [Compound T069, 1-(2-(tert-butylamino)-4-(((1R,3R,4R)-3-hydroxy-4-methylcyclohexyl)amino)pyrimidin-5-yl)propan-1-one] were 100 to 500 nM and 100 to 500 nM.

The term IC50 denotes the concentration that inhibits the measured activity by half. A lower IC50 goes with greater potency.
